# Patent US20030109546A1, “Treatment of psychotic disorders comprising co-therapy with anticonvulsant derivatives and atypical antipsychotics” (priority 2001, published 2003)
# Experiments:
# schizophrenia [1] = test: Example 3 case study: augmentation of clozapine treatment; assay type: in vivo, human
# Description: The patient was a morbidly obese person, who was first hospitalized in 1966 for psychotic symptoms, leading to a psychiatric diagnosis of schizophrenia. Their primary symptoms consisted of a set of strange and elaborate ideas about transmitting their thoughts to others, thoughts that they had invented “invisible steel” which was being used by the CIA and aliens, and a high degree of suspiciousness about the discriminatory intent of their clergyman and the local police. They denied any overt hallucinations, although they acknowledged “weird noises” associated with aliens attempting to contact them. At initial hospitalization, the patient was also profoundly confused and disorganized in their thought processes. Over the next two decades they were hospitalized four more times with essentially this same clinical picture, eventually being admitted in 1989 to a state hospital for long-term treatment where they remain to this day.
# During their five hospitalizations the patient was treated with a variety of anti-psychotic medications, often in various combinations and dosages. In 1994 they were characterized as being treatment refractory according to the Kane criteria and enrolled in an NIMH sponsored study of three different doses of clozapine. As a participant in this study the patient received 100, 300, 600 mg, each for a 3-month period.
# The patient was nonetheless continued on a 100 mg dose of clozapine, with the intent of using a variety of different augmentation strategies to possibly improve their clinical state. […] Throughout this period, the patient's strange and bizarre ideas persisted. They remained emotionally withdrawn, and required regular PRN medication to reduce their agitation on the ward.
# Toward the end of the year 2000, the patient was treated with a drug regimen of 100 mg of clozapine, 2 mg of risperidone, and 750 mg of valproic acid. At this time, the patient agreed to augment their treatment with topiramate. The valproic acid was gradually withdrawn, and on Dec. 5, 2000 the patient was started on 50 mg of topiramate. The topiramate was increased at a rate of 50 mg per week up to a daily dosage of 200 mg where they remained for over four months. Within the first 2-3 weeks of topiramate treatment several important clinical changes were observed. […] Rather than being very certain about their ability to transmit thought to others they now are not sure that this is possible. They were also no longer certain that they actually invented “invisible steel”, but instead mostly only believed that they once thought it, although occasionally the delusional belief breaks though into their thinking. […] Second, as a result of treatment with topiramate the patient's agitation was decreased and PRN medication for agitation was no longer required.
# [2] = tested on: simple and complex partial seizures and secondarily generalized seizures; settings: adjunctive therapy or monotherapy; cited from earlier work
# schizophrenia [3] = test: Example 2 open label pilot study on topiramate as adjunctive therapy in schizophrenia; assay type: in vivo, human; settings: Patient 1
# Procedure: Results from Open Label Pilot Study on Topiramate as Adjunctive Therapy in the Treatment of Schizophrenia
# The patient was a person who met DSM-IV diagnostic criteria for chronic undifferentiated schizophrenia. […] The patient had been maintained on a stable regimen of 20 mg olanzapine prior to initiation of the study. […] Although the patient lived in a group home with other residents, they preferred to spend most of their free time alone, watching television or staying in their room, and went to bed between 7 and 8 o'clock each night. The patient had limited social interactions in the partial hospitalization program, initiating contact with only a few friends. The patient was intrusive during groups and was unable to empathize with others within the group.
# The patient was begun on topiramate at an initial dose of 25 mg/day, titrating to an optimal dosage level of 175 mg/day, which was given in two divided doses during an eight week maintenance medication phase of a clinical trial.
# They also became less stereotyped in their speech, with very infrequent references to their previous recurrent theme of golf. After 12 weeks of adjunctive therapy with topiramate, the patient also appeared more realistic about their golfing skills, stating than they were an “average” golfer, as opposed to their previous assertions about winning several club tournaments.
# The patient also resumed going to bed around 6:30 or 7:00 pm each night.
# seizures = settings: several rodent models of epilepsy; cited from earlier work
# [4] = tested on: schizophrenia, undifferentiated type; test: Example 4 case study: topiramate added to haloperidol and risperidone; assay type: in vivo, human
# Description: The patient was a person, who was first hospitalized in 1983 on an involuntary basis-due to their inability to care for themself. Upon admission, they were described as paranoid, suspicious, agitated, and delusional, and was given the diagnosis of schizophrenia, undifferentiated type. They expressed persecutory delusions saying that the Mafia was going to hurt them. They heard voices telling them that someone was going to rape their parent. After one year of hospitalization, they were discharged into the community, where they soon became unstable resulting in two suicide attempts by hanging and two more short-term hospitalizations. In 1988 the patient was admitted into a state hospital for long-term treatment where they remain to this day. Over the past decade or more, their clinical picture had remained unchanged. They had been treated with numerous anti-psychotic medications, including the newer a typical medicines with little or no benefit. Their high level of agitation and persecutory delusions often propelled them into confrontations with staff and other patients, and they were regularly treated with PRN medications or placed into seclusion for their behavior. […] The topiramate dosage was titrated at a rate of 50 mg per week up to a daily dosage of 150 mg, at which dose the patient remained for a period of 4 months. Within the first month of treatment with topiramate several important clinical changes began to emerge. […] Within 1-2 weeks, the patient was no longer in seclusion and the use of PRN medication for agitation became very rare. Second, the patient's expressions persecutory delusions or suspiciousness decreased, and they were able to join into group activities on the unit.
# schizophrenia [5] = test: Example 2 open label pilot study on topiramate as adjunctive therapy in schizophrenia; assay type: in vivo, human
# schizoaffective disorder = test: Example 1 case study: topiramate added to olanzapine-containing regimen; assay type: in vivo, human
# Description: The patient was a single person, diagnosed with schizoaffective disorder, who presented with a variety of problems including disorganized behavior, suspiciousness, ideas of reference, stereotyped and obsessional thinking, lack of motivation, poor hygiene, poverty of speech, oppositional behavior and intermittent suicide attempts. The patient spent virtually the entire day in bed and was awake through the night. […] Despite continuous psychiatric and pharmacological treatment, the patient remained substantially disabled by withdrawal, apathy, poverty of speech, poor hygiene, anhedonia and suspiciousness. […] In addition, the patient was seen weekly in individual psychotherapy. There were no additional active medical problems. The patient was started on topiramate with dosages increased over a period of six weeks to 400 mg/day. […] In addition, the patient's residual positive symptoms, including primary suspiciousness and ideas of reference, were improved and the patient became less fearful of interacting with other. Patient's social functioning was improved, with the patient able to hold part-time employment. […] The patient maintained their part-time employment and engaged in productive social activity several times a week. […] (Lorazepam was removed with sustained improvement.)
# kindled epilepsy = settings: animal model of kindled epilepsy; cited from earlier work
# [6] = topiramate 175 mg/day added to 20 mg olanzapine
# [7] = topiramate 25 to 175 mg/day added to 20 mg olanzapine
# [8] = topiramate 50 to 200 mg daily added to 100 mg clozapine, 2 mg risperidone
# [9] = period of treatment that included topiramate
# [10] = topiramate 50 to 150 mg daily added to haloperidol and risperidone
# [11] = topiramate up to 400 mg/day added to olanzapine-containing regimen
compound,measurement,setting,value
"CCCC(CCC)C(=O)O [Depakote, divalproex sodium]",benefit when added to clozapine treatment,"schizophrenia [1]; up to 5000 mg added to clozapine, 1999",little benefit
"CN1CCN(C2=Nc3cc(Cl)ccc3Nc3ccccc32)CC1 [clozapine, 8-chloro-11-(4-methyl-1-piperazinyl)-5H-dibenzo[b,e][1,4]diazepine]",adverse event,schizophrenia [1]; 900 mg of clozapine,led to a seizure
same,response to treatment,"schizophrenia [1]; clozapine 100, 300, 600 mg, each for 3 months (NIMH study)",did not show any meaningful response
"Cc1nc2n(c(=O)c1CCN1CCC(c3noc4cc(F)ccc34)CC1)CCCC2 [risperidone, 3-[2-[4-(6-fluoro-1,2-benzisoxazol-3-yl)piperidino]ethyl]-2-methyl-6,7,8,9-tetrahydro-4H-pyrido-[1,2-a]pyrimidin-4-one]",adverse event when added to clozapine treatment,schizophrenia [1]; standard dose added to 100 mg clozapine,severe tremors
same,effect when added to clozapine treatment,schizophrenia [1]; standard doses added to 100 mg clozapine,little effect
same,benefit of clozapine augmentation with low dose risperidone,schizophrenia [1]; study in 2000,lack of treatment benefit
"CC1(C)O[C@@H]2[C@@H](CO[C@@]3(COS(N)(=O)=O)OC(C)(C)O[C@@H]23)O1 [topiramate, 2,3:4,5-bis-O-(1-methylethylidene)-β-D-fructopyranose sulfamate]",efficacy in treating simple and complex partial seizures and secondarily generalized seizures,[2],effective
same,change in the Positive or General Scales of the PANSS,schizophrenia [3]; [6],"did not show any consistent, significant change"
same,decrease in the Negative Scale score (PANSS) from baseline,schizophrenia [3]; [6],7 points
same,tolerability,schizophrenia [3]; [7],well tolerated
same,vital signs and laboratory values,schizophrenia [3]; [7],remained within the normal range
same,Negative Scale score after discontinuation of topiramate,schizophrenia [3]; upon completion of the study protocol,increase in the Negative Scale score
same,clinical state (opinion of the treatment team),schizophrenia [1]; addition of topiramate,clear and important degree of improvement
same,level of suspiciousness,schizophrenia [1]; [8],decreased
same,thought organisation / conversation,schizophrenia [1]; [8],able to engage in a logical conversation
same,agitation,"schizophrenia [1]; topiramate 50 to 200 mg daily added to 100 mg clozapine, 2 mg risperidone, PRN medication no longer required",decreased
same,level of preoccupation with delusional thoughts,"schizophrenia [1]; topiramate 50 to 200 mg daily added to 100 mg clozapine, 2 mg risperidone, within first 2-3 weeks",obviously reduced
same,seizure block,seizures,effectively block seizures
same,"intensity of positive symptoms (auditory hallucinations, delusions of persecution)",[4]; [9],reduced in occurrence and severity
same,social withdrawal,[4]; [9],less socially withdrawn
same,expressions of persecutory delusions or suspiciousness,[4]; [10],decreased
same,negative symptoms,[4]; [10],fewer negative symptoms
same,level of agitation,"[4]; topiramate 50 to 150 mg daily added to haloperidol and risperidone, within first month",reduced dramatically
same,response with regards to negative symptoms,"schizophrenia [5]; Patients 2 & 3, adjunctive topiramate",did not respond significantly
same,positive symptoms,"schizophrenia [5]; Patients 2 & 3, over the course of the trial",decreases in positive symptoms
same,negative symptoms,"schizophrenia [5]; one of Patients 2 & 3, fluctuated during drug maintenance period",limited decrease
same,side effect potentially attributable to topiramate,"schizophrenia [5]; second of Patients 2 & 3, topiramate 100 mg/day",difficulties with verbal fluency and word finding
same,negative symptoms,"schizophrenia [5]; second of Patients 2 & 3, topiramate 100 mg/day lowered to 75 mg/day, dropped from study",significant decrease
same,maintenance of improvement,"schizoaffective disorder; after 5 months, topiramate decreased to 300 mg/day",improvements maintained
same,maintenance of improvement,"schizoaffective disorder; after 10 months, 300 mg topiramate, 7.5 mg olanzapine, 400 mg fluvoxamine, 1 mg lorazepam daily",improvement was still sustained
same,maintenance of improvement,"schizoaffective disorder; after more than 2 years, 300 mg topiramate, 7.5 mg olanzapine, 400 mg fluvoxamine daily",remained improved
same,"negative symptoms (eye contact, attention, concentration, poverty of speech, grooming, hygiene, withdrawal)","schizoaffective disorder; topiramate increased over six weeks to 400 mg/day, added to fluvoxamine, Depakote, lorazepam, olanzapine 10 mg, over 8 weeks",significant improvement
same,"residual positive symptoms (suspiciousness, ideas of reference)",schizoaffective disorder; [11],improved
same,social functioning,schizoaffective disorder; [11],improved
same,seizure block,kindled epilepsy,effectively block seizures
